# Experimental data reported in US12653776B2, “Methods of treatment of cancer by continuous infusion of coenzyme Q10” (priority 2013, dated 2026).
# Legend:
# [1] = Phase 1a/b study, 96-hour continuous IV infusion: pharmacokinetics; format: in vivo, human
# Procedure: (§1) Blood samples for pharmacokinetic and pharmacodynamic analyses are collected during each cycle of monotherapy and combination therapy. Urine samples for determination of coenzyme Q10 renal clearance are collected only during Cycle 1 of monotherapy and combination therapy. A PET scan is performed within 2 weeks prior to starting treatment and after 2 weeks of coenzyme Q10 treatment, and 8 weeks of treatment on Arm 1 or 10 weeks of treatment on Arm 2. Core biopsies (2-3) are performed at the time of baseline and Week 2 PET scan for patients who opt-in to participate in these exploratory studies.
# solid tumors = assay: Phase 1a/b study, 96-hour continuous IV infusion: tumor response and PET; format: in vivo, human
# Procedure: Assessments of the antitumor activity of coenzyme Q10 is performed at the end of Cycle 2 and every 2 cycles thereafter using standard techniques such as computerized tomography (CT) or magnetic resonance imaging (MRI) for patients with measurable disease. Response is evaluated using Response Evaluation Criteria in Solid Tumors (RECIST) v1.1. Patients who experience no unacceptable toxicity or disease progression, may receive additional 28-day cycles for up to 1 year on Arm 1 or 2. Patients on Arm 1 who progress may elect to continue coenzyme Q10 treatment in combination with gemcitabine, 5-FU, or docetaxel at the treating physician's discretion. Once a dose level of coenzyme Q10 monotherapy is evaluated and the CRC determines it safe to escalate to the next dose level, Cohort 1 of Treatment Arm 2 of coenzyme Q10 in combination with chemotherapy will open to accrual. Cohort 1 of Arm 2 patients are enrolled onto one of 3 chemotherapies, gemcitabine, 5-FU, or docetaxel. Cycle 1 of combination therapy (Arm 2) is 6 weeks in duration for patients with coenzyme Q10 administered twice weekly on Mondays and Wednesday for 6 weeks and chemotherapy administered on Fridays, Days 19, 26 and 33. Cycles 2-12 are 4 weeks in duration with coenzyme Q10 administered twice weekly on Mondays and Wednesdays for 4 weeks and chemotherapy administered on Fridays, Days 5, 12 and 19. Dose limiting toxicities are assessed during Cycle 1. Response is assessed after Cycle 2 (10 weeks) and responders who continue onto Cycles 2-12 are assessed every 2 cycles (8 weeks). […] Patients on Arm 2 who progress on one type of chemotherapy may not switch to one of the other chemotherapy agents in combination with coenzyme Q10. However, if the chemotherapy component (i.e., 5-FU, gemcitabine, or docetaxel) of combination therapy is discontinued due to chemotherapy-related toxicity, patients may continue to receive coenzyme Q10 as monotherapy.
# as §1
# [2] = Patient 1, 66 mg/kg week monotherapy, end of two cycles
substance,measurement,setting,value
coenzyme Q10,increase in the intratumor concentration of Coenzyme Q11,"[1]; Patient 1, gastric adenocarcinoma, dose level 1 (66 mg/kg week)",15 fold
same,pharmacokinetics,[1]; initial tested doses,linear distribution
same,patients evaluable for efficacy showing various responses,"solid tumors; Eight out of twelve patients, after dose level 2",75%
same,multiomics tissue analysis,"solid tumors; Patient 1, 66 mg/kg week monotherapy",switch from anaerobic driven markers to oxidative phosphorylation
same,cervical lymph node metastases,solid tumors; [2],disappearance of cervical lymph node metastases
same,size of the target lesion,solid tumors; [2],minimal changes
same,decrease on PET-SUV,"solid tumors; Patient 1, gastric adenocarcinoma, 66 mg/kg week monotherapy, end of two cycles",40%
same,PET/CT response,solid tumors; Patient 1 after switch to combination arm adding weekly docetaxel,again showed metabolic responses by PET/CT
same,"Max SUV, Right iliac bone lesion","solid tumors; Patient 2, gemcitabine + coenzyme Q10 66 mg/kg, Week 10 PET, from 2.3",1.9
same,"Max SUV, Omentum lesion 2","solid tumors; Patient 2, gemcitabine + coenzyme Q10 66 mg/kg, Week 10 PET, from 3.5",2.8
same,non-target lesion response,"solid tumors; Patient 2, gemcitabine + coenzyme Q10 66 mg/kg, lesion in the abdomen",complete response in one of the non-target lesions
same,"Max SUV, Omentum lesion 1","solid tumors; Patient 2, metastatic bladder cancer, gemcitabine + coenzyme Q10 66 mg/kg, Week 10 PET, previous value 1.7",0.8
same,outcomes by RECIST criteria,solid tumors; expected at the end of the ongoing study,clinically relevant outcomes
same,antitumor activity in a variety of solid tumors,"solid tumors; gastric, pancreatic, colon, head and neck, NSCLC, mesothelioma, TN breast cancer",showed early activity at low doses
